Reference: ChEMBL document CHEMBL4613209, “Quinolone hybrids and their anti-cancer activities: An overview” (Eur J Med Chem, 2019)
Values after ≈ are worked out from the molar mass of the structure shown. Each block holds one molecule with its values, some of them ahead of it.

Tests used:
A549 [1] = assay: Antiproliferative activity against human A549 cells by CCK8 assay; type: functional, cell-based
HepG2 [2] = assay: Antiproliferative activity against human HepG2 cells by CCK8 assay; type: functional, cell-based
MCF7 [3] = assay: Antiproliferative activity against human MCF7 cells by CCK8 assay; type: functional, cell-based
PC-3 = assay: Antiproliferative activity against human PC3 cells by CCK8 assay; type: functional, cell-based
HeLa = assay: Antiproliferative activity against human HeLa cells by CCK8 assay; type: functional, cell-based
MCF-10A = assay: Antiproliferative activity against human MCF10A cells by CCK8 assay; type: cell-based
Histone deacetylase = assay: Inhibition of HDAC (unknown origin); type: protein assay, Homo sapiens
Tubulin = assay: Inhibition of tubulin polymerization (unknown origin); type: protein-complex assay, Homo sapiens
A549 [4] = assay: Cytotoxicity against human A549 cells assessed as reduction in cell viability; type: functional, cell-based
HT-29 [5] = assay: Cytotoxicity against human HT-29 cells assessed as reduction in cell viability; type: functional, cell-based
P388 [6] = assay: Cytotoxicity against mouse P388 cells assessed as reduction in cell viability; type: functional, cell-based
P388 [7] = assay: Cytotoxicity against doxorubicin resistant mouse P388 cells assessed as reduction in cell viability; type: functional, cell-based
B16-F10 [8] = assay: Cytotoxicity against mouse B16F10 cells assessed as reduction in cell viability; type: functional, cell-based
A549 [9] = assay: Anticancer activity against human A549 cells; type: functional, cell-based
HT-29 [10] = assay: Anticancer activity against human HT-29 cells; type: functional, cell-based
HCT-8 = assay: Anticancer activity against human HCT8 cells; type: functional, cell-based
MCF7 [11] = assay: Anticancer activity against human MCF7 cells; type: functional, cell-based
B16-F10 [12] = assay: Anticancer activity against mouse B16F10 cells; type: functional, cell-based
[13] = test system: Lewis lung carcinoma cell line; assay: Anticancer activity against mouse LLC cells; type: functional, cell-based
P388 [14] = assay: Anticancer activity against mouse P388 cells; type: functional, cell-based
P388 [15] = assay: Anticancer activity against doxorubicin resistant mouse P388 cells; type: functional, cell-based
SiHa = assay: Growth inhibition of human SiHa cells after 48 hrs by SRB assay; type: functional
MDA-MB-231 = assay: Growth inhibition of human MDA-MB-231 cells after 48 hrs by SRB assay; type: functional; conditions: MDA-MB-231, 48 h
HepG2 [16] = assay: Anticancer activity against human HepG2 cells by MTT assay; type: functional, cell-based
HT-29 [17] = assay: Anticancer activity against human HT-29 cells by MTT assay; type: functional, cell-based
HL-60 = assay: Anticancer activity against human HL60 cells by MTT assay; type: functional, cell-based
NCI-H460 = assay: Growth inhibition of human NCI-H460 cells; type: functional; conditions: pooled result: one value given for 3 cell lines, strains, targets or settings
MCF7 [18] = assay: Cytotoxicity against human MCF7 cells assessed as reduction in cell viability after 72 hrs by MTT assay; type: functional, cell-based; conditions: MCF7, 72 h
ACHN = assay: Cytotoxicity against human ACHN cells assessed as reduction in cell viability after 72 hrs by MTT assay; type: functional, cell-based
A 172 = assay: Cytotoxicity against human A172 cells assessed as reduction in cell viability after 72 hrs by MTT assay; type: functional, cell-based; conditions: A 172, 72 h
SK-MEL3 = assay: Cytotoxicity against human SK-MEL-3 cells assessed as reduction in cell viability after 72 hrs by MTT assay; type: functional, cell-based; conditions: SK-MEL3, 72 h
KB = assay: Cytotoxicity against human KB cells assessed as reduction in cell viability after 72 hrs by MTT assay; type: functional, cell-based
A549 [19] = assay: Cytotoxicity against human A549 cells assessed as reduction in cell viability after 72 hrs by MTT assay; type: functional, cell-based; conditions: A549, 72 h
A2780 = assay: Cytotoxicity against human A2780 cells assessed as reduction in cell viability after 72 hrs by MTT assay; type: functional, cell-based; conditions: A2780, 72 h

IC50 (A549 [1]): 300 to 12800 nM
IC50 (HepG2 [2]): 300 to 12800 nM
IC50 (MCF7 [3]): 300 to 12800 nM
IC50 (PC-3): 300 to 12800 nM
IC50 (HeLa): 300 to 12800 nM
IC50 (Histone deacetylase): 21 to 850 nM
IC50 (Tubulin): 1790 to 6360 nM
Compound: C[C@H]1COc2c(N3CCN(C)CC3)c(F)cc3c(=O)c(C(=O)OCc4cn(CCCCCCCC(=O)NO)nn4)cn1c23
IC50 (MCF-10A): > 100000 nM

IC50 (A549 [1]): 300 to 12800 nM
IC50 (HepG2 [2]): 300 to 12800 nM
IC50 (MCF7 [3]): 300 to 12800 nM
IC50 (PC-3): 300 to 12800 nM
IC50 (HeLa): 300 to 12800 nM
IC50 (Histone deacetylase): 21 to 850 nM
IC50 (Tubulin): 1790 to 6360 nM
Compound: C[C@H]1COc2c(N3CCN(C)CC3)c(F)cc3c(=O)c(C(=O)OCc4cn(CCCCCCC(=O)NO)nn4)cn1c23
IC50 (MCF-10A): > 100000 nM

IC50 (A549 [9]): 30 to 490 nM
IC50 (HT-29 [10]): 30 to 490 nM
IC50 (HCT-8): 30 to 490 nM
IC50 (MCF7 [11]): 30 to 490 nM
IC50 (B16-F10 [12]): 30 to 490 nM
IC50 [13]: 30 to 490 nM
IC50 (P388 [14]): 30 to 490 nM
IC50 (P388 [15]): 30 to 490 nM
Compound: CC(C)(C)c1cccc(NC2CCN(C3C(F)=Cc4c5n(cc(C(=O)O)c4=O)-c4ccccc4OC53)C2)c1 (stereo unspecified)
IC50 (A549 [4]): 0.011 to 0.59 µg/mL (≈ 0.0213 to 1.14 µM)
IC50 (HT-29 [5]): 0.011 to 0.59 µg/mL (≈ 0.0213 to 1.14 µM)
IC50 (P388 [6]): 0.011 to 0.59 µg/mL (≈ 0.0213 to 1.14 µM)
IC50 (P388 [7]): 0.011 to 0.59 µg/mL (≈ 0.0213 to 1.14 µM)
IC50 (B16-F10 [8]): 0.011 to 0.59 µg/mL (≈ 0.0213 to 1.14 µM)

GI50 (MDA-MB-231): ≤ 100 nM
Compound: O=C(O)c1cn(C2CC2)c2cc(N3CCN(C(=O)CCSc4nnnn4Cc4ccccc4)CC3)c(F)cc2c1=O
GI50 (SiHa): ≤ 100 nM

IC50 (HepG2 [16]): 13100 to 88400 nM
IC50 (HT-29 [17]): 13100 to 88400 nM
IC50 (HL-60): 13100 to 88400 nM
Compound: CCOC(=O)c1cn(Cc2cn(-c3ccc(Cl)cc3)nn2)c2ccc(C)cc2c1=O

IC50 (A549 [9]): 30 to 490 nM
IC50 (HT-29 [10]): 30 to 490 nM
IC50 (HCT-8): 30 to 490 nM
IC50 (MCF7 [11]): 30 to 490 nM
IC50 (B16-F10 [12]): 30 to 490 nM
IC50 [13]: 30 to 490 nM
IC50 (P388 [14]): 30 to 490 nM
IC50 (P388 [15]): 30 to 490 nM
Compound: Cc1ccc(NC2CCN(C3C(F)=Cc4c5n(cc(C(=O)O)c4=O)-c4ccccc4OC53)C2)cc1 (stereo unspecified)
IC50 (A549 [4]): 0.011 to 0.59 µg/mL (≈ 0.0232 to 1.25 µM)
IC50 (HT-29 [5]): 0.011 to 0.59 µg/mL (≈ 0.0232 to 1.25 µM)
IC50 (P388 [6]): 0.011 to 0.59 µg/mL (≈ 0.0232 to 1.25 µM)
IC50 (P388 [7]): 0.011 to 0.59 µg/mL (≈ 0.0232 to 1.25 µM)
IC50 (B16-F10 [8]): 0.011 to 0.59 µg/mL (≈ 0.0232 to 1.25 µM)

GI50 (NCI-H460): 10700 to 53700 nM
Compound: COc1ccc2c(c1)[nH]c(=O)c1c3ccccc3oc21

GI50 (NCI-H460): 18200 nM
Compound: O=c1[nH]c2ccccc2c2[nH]cc(-c3ccccc3)c12

IC50 (A549 [9]): 30 to 490 nM
IC50 (HT-29 [10]): 30 to 490 nM
IC50 (HCT-8): 30 to 490 nM
IC50 (MCF7 [11]): 30 to 490 nM
IC50 (B16-F10 [12]): 30 to 490 nM
IC50 [13]: 30 to 490 nM
IC50 (P388 [14]): 30 to 490 nM
IC50 (P388 [15]): 30 to 490 nM
Compound: COc1ccc(NC2CCN(C3C(F)=Cc4c5n(cc(C(=O)O)c4=O)-c4ccccc4OC53)C2)cc1 (stereo unspecified)
IC50 (A549 [4]): 0.011 to 0.59 µg/mL (≈ 0.0225 to 1.21 µM)
IC50 (HT-29 [5]): 0.011 to 0.59 µg/mL (≈ 0.0225 to 1.21 µM)
IC50 (P388 [6]): 0.011 to 0.59 µg/mL (≈ 0.0225 to 1.21 µM)
IC50 (P388 [7]): 0.011 to 0.59 µg/mL (≈ 0.0225 to 1.21 µM)
IC50 (B16-F10 [8]): 0.011 to 0.59 µg/mL (≈ 0.0225 to 1.21 µM)

IC50 (A549 [1]): 300 to 12800 nM
IC50 (HepG2 [2]): 300 to 12800 nM
IC50 (MCF7 [3]): 300 to 12800 nM
IC50 (PC-3): 300 to 12800 nM
IC50 (HeLa): 300 to 12800 nM
IC50 (Histone deacetylase): 21 to 850 nM
IC50 (Tubulin): 1790 to 6360 nM
Compound: C[C@H]1COc2c(N3CCN(C)CC3)c(F)cc3c(=O)c(C(=O)OCc4cn(CCCCCC(=O)NO)nn4)cn1c23
IC50 (MCF-10A): > 100000 nM

Compound: CO/N=C(/CN1CCN(c2cc3c(cc2F)c(=O)c(C(=O)O)cn3C2CC2)CC1)c1ccco1
IC50 (MCF7 [18]): > 100000 nM
IC50 (ACHN): > 100000 nM
IC50 (A 172): > 100000 nM
IC50 (SK-MEL3): > 100000 nM
IC50 (KB): > 100000 nM
IC50 (A549 [19]): > 100000 nM
IC50 (A2780): > 100000 nM

GI50 (MDA-MB-231): ≤ 100 nM
Compound: O=C(O)c1cn(C2CC2)c2cc(N3CCN(C(=O)CCSc4nnnn4-c4ccc(Br)cc4)CC3)c(F)cc2c1=O
GI50 (SiHa): ≤ 100 nM

IC50 (A549 [1]): 300 to 12800 nM
IC50 (HepG2 [2]): 300 to 12800 nM
IC50 (MCF7 [3]): 300 to 12800 nM
IC50 (PC-3): 300 to 12800 nM
IC50 (HeLa): 300 to 12800 nM
IC50 (Histone deacetylase): 21 to 850 nM
IC50 (Tubulin): 1790 to 6360 nM
Compound: C[C@H]1COc2c(N3CCN(C)CC3)c(F)cc3c(=O)c(C(=O)NCc4cn(CCCCCCCC(=O)NO)nn4)cn1c23
IC50 (MCF-10A): > 100000 nM

GI50 (NCI-H460): 19000 nM
Compound: O=c1[nH]c2ccccc2c2[nH]c3ccccc3c12

IC50 (A549 [9]): 30 to 490 nM
IC50 (HT-29 [10]): 30 to 490 nM
IC50 (HCT-8): 30 to 490 nM
IC50 (MCF7 [11]): 30 to 490 nM
IC50 (B16-F10 [12]): 30 to 490 nM
IC50 [13]: 30 to 490 nM
IC50 (P388 [14]): 30 to 490 nM
IC50 (P388 [15]): 30 to 490 nM
Compound: Cc1ccccc1NC1CCN(C2C(F)=Cc3c4n(cc(C(=O)O)c3=O)-c3ccccc3OC42)C1 (stereo unspecified)
IC50 (A549 [4]): 0.011 to 0.59 µg/mL (≈ 0.0232 to 1.25 µM)
IC50 (HT-29 [5]): 0.011 to 0.59 µg/mL (≈ 0.0232 to 1.25 µM)
IC50 (P388 [6]): 0.011 to 0.59 µg/mL (≈ 0.0232 to 1.25 µM)
IC50 (P388 [7]): 0.011 to 0.59 µg/mL (≈ 0.0232 to 1.25 µM)
IC50 (B16-F10 [8]): 0.011 to 0.59 µg/mL (≈ 0.0232 to 1.25 µM)
